Test results: publication PMC3663535, “Substrate Selectivity of the Acid-activated Glutamate/γ-Aminobutyric acid (GABA) Antiporter GadC from Escherichia coli” (The Journal of Biological Chemistry, 2013)

Target: T1, WT GadC (Escherichia coli, UniProt P63235)
T1 construct: full-length wild type; hexahistidine tag proteolytically removed; recombinant, reconstituted in E. coli polar lipid proteoliposomes
Experiment: proteoliposome Gln/GABA exchange with membrane potential
Format: biochemical
Conditions: 5 mM internal GABA, efflux followed through influx of 50 μM external [3H]Gln; pH 5.5

T1 sequence (P63235 whole entry): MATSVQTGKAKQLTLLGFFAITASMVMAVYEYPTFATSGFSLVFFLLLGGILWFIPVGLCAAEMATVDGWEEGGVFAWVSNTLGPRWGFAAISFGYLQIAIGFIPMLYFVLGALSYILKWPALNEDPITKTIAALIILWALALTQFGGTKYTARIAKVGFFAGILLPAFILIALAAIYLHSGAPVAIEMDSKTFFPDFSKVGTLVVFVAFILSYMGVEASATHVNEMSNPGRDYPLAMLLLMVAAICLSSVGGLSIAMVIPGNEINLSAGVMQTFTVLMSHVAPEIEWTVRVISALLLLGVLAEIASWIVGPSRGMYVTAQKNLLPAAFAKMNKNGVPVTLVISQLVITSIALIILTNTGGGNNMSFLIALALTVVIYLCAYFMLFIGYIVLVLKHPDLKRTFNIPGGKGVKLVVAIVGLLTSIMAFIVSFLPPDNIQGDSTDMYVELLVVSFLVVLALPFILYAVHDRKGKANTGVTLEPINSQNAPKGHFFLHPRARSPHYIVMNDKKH

## NCCCC(=O)O [GABA]
  proteoliposome Gln/GABA exchange with membrane potential: confirm our prediction that GABA^+ is the transport substrate for GadC
